Assay type in all cases: biochemical
One assay concerns the target T1, Factor Xa (Homo sapiens, UniProt P00742).
T1 construct: purchased Enzyme Research Laboratories, Inc
The assay is described as follows: In vitro inhibition of purified factor Xa (hydrolysis of Bz-Ile-Glu-Gly-Arg-pNa). To be noted: purified enzyme, 10 nM factor Xa, 26 μM substrate, pH 7.5, 37° C. The method, then: (§1) The ability of the compounds of the present invention to act as inhibitors of thrombin, factor Xa and plasmin catalytic activity was assessed by determining the concentration that inhibited enzyme activity by 50% using purified human enzymes. The concentration of added inhibitor that caused a 50% decrease in the initial rate of hydrolysis was defined as the IC50 value.
(§2) All assays are based on the ability of the test compound to inhibit the hydrolysis of a peptide p-nitroanilide substrate. In a typical experiment, appropriate substrate is prepared in DMSO, and diluted into an assay buffer consisting of 50 mM HEPES and 130 mM NaCl at a pH of 7.5. The final concentration for each of the substrates is listed below. All substrate concentrations are at least 10 fold lower than Km to insure inhibition is competitive. Test compounds are prepared as 1 mg/mL solutions in DMSO, and three additional 10-fold dilutions in DMSO are prepared. Enzyme solutions are prepared at the concentrations listed below in assay buffer.
(§3) In a typical IC50 determination, into each well of a 96 well plate is pipetted 280 μL of substrate solution, 10 μL of inhibitor solution, and the plate is allowed to thermally equilibrate at 37° C. in a Molecular Devices Plate Reader for at least 10 minutes. Reactions are initiated by the addition of a 20 μL aliquot of enzyme, and the absorbance increase at 405 nm is recorded for 15 minutes. Data corresponding to less than 10% of the total substrate hydrolysis is used in the calculations. The ratio of the velocity (rate of the change in absorbance as a function of time) for a sample containing no inhibitor is divided by the velocity of a sample containing inhibitor, and is plotted as a function of inhibitor concentration. The inverse of the slope is the concentration of inhibitor which produces a 50% decrease in activity of the enzyme. This concentration is referred to as the IC50.
Factor Xa activity was assessed as the ability to hydrolyze the substrate Bz-Ile-Glu-Gly-Arg-pNa, and was obtained from Sigma. Substrate solutions were prepared at a concentration of 26 μM (26 μM<<Km =1.3 mM) in assay buffer. Final DMSO concentration was 0.3%. Activated factor Xa was obtained from Enzyme Research Laboratories, Inc., and was diluted into assay buffer to a concentration of 1.2 μM. Final reagent concentrations were: [Factor Xa]=10 nM, [Bz-Ile-Glu-Gly-Arg-pNa]=26 μM, [inhibitor]=60to 0.06 μM.

The target of a further assay is human α-thrombin (Homo sapiens, UniProt P00734). Nature of the assay: In vitro inhibition of purified thrombin (hydrolysis of Bz-Phe-Val-Arg-pNa). Particulars: for IC50: purified human α-thrombin 36 nM, pH 7.5, 37° C.; for inhibition at 60 µM: at 60 μM inhibitor. The method, then: as §1, §2, §3
Thrombin activity was assessed as the ability to hydrolyze the substrate N-benzoyl-Phe-Val-Arg-p-nitroanilide (Bz-Phe-Val-Arg-pNa), and was obtained from Sigma Chemical Company (St. Louis, Mo.). Substrate solutions were prepared at a concentration of 60 μM (60 μM<<Km =1.2 mM) in assay buffer. Final DMSO concentration was 0.3%. […] Final reagent concentrations were: [thrombin]=36 nM, [Bz-Phe-Val-Arg-pNa]=[…], [inhibitor]=60 to 0.06 μM.

The target of a further assay is human plasmin (Homo sapiens, UniProt P00747). Nature of the assay: In vitro inhibition of purified plasmin (hydrolysis of Tos-Gly-Pro-Lys-pNa). To be noted: for inhibition at 60 µM: at 60 μM inhibitor. The method, then: as §1, §2, §3
human plasmin, sequence (P00747 581-810 limits assumed): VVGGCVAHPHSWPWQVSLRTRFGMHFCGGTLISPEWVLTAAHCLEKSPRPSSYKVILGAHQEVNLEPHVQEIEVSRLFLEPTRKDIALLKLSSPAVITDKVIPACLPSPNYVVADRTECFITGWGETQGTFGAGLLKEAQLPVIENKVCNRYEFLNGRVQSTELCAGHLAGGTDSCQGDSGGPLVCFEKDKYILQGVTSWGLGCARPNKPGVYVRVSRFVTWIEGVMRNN
human plasmin, sequence (P00747 97-580 partner limits assumed): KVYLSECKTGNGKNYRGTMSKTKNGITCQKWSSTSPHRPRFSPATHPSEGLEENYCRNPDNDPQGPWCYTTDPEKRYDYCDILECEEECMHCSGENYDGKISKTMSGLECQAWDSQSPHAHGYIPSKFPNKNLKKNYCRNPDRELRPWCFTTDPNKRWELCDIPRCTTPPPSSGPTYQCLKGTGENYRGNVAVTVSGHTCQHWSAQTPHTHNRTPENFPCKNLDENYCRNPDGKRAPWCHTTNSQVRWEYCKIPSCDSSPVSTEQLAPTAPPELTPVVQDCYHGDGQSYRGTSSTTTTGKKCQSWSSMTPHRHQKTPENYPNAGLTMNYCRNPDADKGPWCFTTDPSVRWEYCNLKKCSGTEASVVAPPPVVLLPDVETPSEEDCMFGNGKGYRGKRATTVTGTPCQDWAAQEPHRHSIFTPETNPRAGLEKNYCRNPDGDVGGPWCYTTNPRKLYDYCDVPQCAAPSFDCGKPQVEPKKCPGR
Plasmin activity was assessed as the ability to hydrolyze the substrate Tos-Gly-Pro-Lys-pNa, and was obtained from Sigma. Substrate solutions were prepared at a concentration of 22 μM (22 μM<<Km =240 μM) in assay buffer. Final DMSO concentration was 0.3%. Purified human plasmin was obtained from Enzyme Research Laboratories Inc, and was diluted into assay buffer to a concentration of 1.2 μM. Final reagent concentrations were: [plasmin]=15 nM, […], [inhibitor]=60 to 0.06 μM.

Setting [1] is: purified human plasmin 15 nM, pH 7.5, 37° C., read-out: Plasmin Inhibition (IC50).

Where two headings read alike, the source gives them in different places.

T1 sequence (P00742 235-488 limits assumed): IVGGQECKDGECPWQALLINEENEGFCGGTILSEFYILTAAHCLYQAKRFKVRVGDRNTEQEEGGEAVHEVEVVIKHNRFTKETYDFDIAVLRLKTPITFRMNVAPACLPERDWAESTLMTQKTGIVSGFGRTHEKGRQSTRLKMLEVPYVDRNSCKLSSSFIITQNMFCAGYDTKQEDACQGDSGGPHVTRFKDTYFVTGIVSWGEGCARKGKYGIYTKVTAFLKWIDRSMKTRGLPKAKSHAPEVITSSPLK
T1 sequence (P00742 41-179 partner limits assumed): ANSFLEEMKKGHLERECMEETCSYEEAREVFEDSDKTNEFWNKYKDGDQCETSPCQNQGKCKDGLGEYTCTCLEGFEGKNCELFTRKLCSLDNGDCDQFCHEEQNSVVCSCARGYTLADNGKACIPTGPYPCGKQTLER

For `O=C(NCC(O)c1cccc(O)c1)c1cccc(NS(=O)(=O)c2ccc3ccccc3c2)c1` (stereo not drawn) [Compound 14, 3-[(2-Naphthalenylsulfonyl)amino]-N-[2-hydroxy-2-(3'-hydroxyphenyl)ethyl]benzamide], the IC50 on Factor Xa worked out at 11.4 µM; against human α-thrombin it was 87 µM; on human plasmin, 86.1 µM.
In the case of `CN(C)c1ccc(CNC(=O)c2cccc(NS(=O)(=O)c3ccc4ccccc4c3)c2)cc1` [Compound 16], the IC50 on Factor Xa turned out to be 3.2 µM; against human α-thrombin, 52.8 µM. On human plasmin, this compound returned an inhibition at 60 µM of 0%.
Take `COc1cc(CNC(=O)c2cccc(NS(=O)(=O)c3ccccc3)c2)ccc1O` [Compound 20, 3-[(Phenylsulfonyl)amino]-N-[(4-hydroxy-3-methoxyphenyl)methyl]benzamide]: the IC50 on Factor Xa came to 19.2 µM; on human plasmin (setting [1]) it was 5.8 µM. Also, at human α-thrombin, the inhibition at 60 µM amounted to 0%.
With `COc1cc(C(O)CNC(=O)c2cccc(NS(=O)(=O)c3ccccc3)c2)ccc1O` (stereo not drawn) [Compound 22, 3-[(Phenylsulfonyl)amino]-N-[2-hydroxy-2-(4'-hydroxy-3'-methoxyphenyl)ethyl]benzamide], the results for the IC50 against Factor Xa and against human α-thrombin were 20.8 µM and 38.3 µM, respectively. This compound came in with an inhibition at 60 µM against human plasmin of 0%.
For `O=C(NCCc1ccccn1)c1cccc(NS(=O)(=O)c2ccc3ccccc3c2)c1` [Compound 27], the IC50 was found to be 2 µM against Factor Xa and 294 µM at human α-thrombin. Testing at 60 µM against human plasmin gave an inhibition of 0%.
For the compound `CN(C)c1ccc(CNC(=O)c2cccc(NS(=O)(=O)c3cccc(N)c3)c2)cc1` [Compound 31, 3-[(3'-Aminophenylsulfonyl)amino]-N-[4'-[(N', N'-dimethylamino)phenyl]methyl]benzamide], the IC50 at Factor Xa was found to be 16.5 µM; on human plasmin (setting [1]), 15.2 µM. The same compound displayed an inhibition at 60 µM on human α-thrombin of 0%.
Regarding `NCCCCCNC(=O)c1cccc(NS(=O)(=O)c2ccc3ccccc3c2)c1` [Compound 32, 3-[(2-Naphthalenylsulfonyl)amino]-N-(5-aminopentyl)benzamide], the IC50 at Factor Xa was 7.6 µM. The inhibition at 60 µM against human α-thrombin and at human plasmin was 0% in each case.

Broadly, the IC50 is the concentration that inhibits the measured activity by half. Broadly, the inhibition is the relative decrease from the control value, in per cent. A lower inhibition goes with a response near the control.

Values taken from patent US5741819A, “Arylsulfonylaminobenzene derivatives and the use thereof as factor Xa inhibitors” (3-Dimensional Pharmaceuticals, Inc., priority 1995, dated 1998).
